We go through one substance from patent US20240150711A1, “PERSONALIZED REDIRECTION AND REPROGRAMMING OF T CELLS FOR PRECISE TARGETING OF TUMORS” (Dana-Farber Cancer Institute, Inc., priority 2021, published 2024).

The subject of the experiment is Tcf7. Put plainly: Tcf7 protein levels by intracellular flow cytometry in CD8 T cells cultured with neutralizing antibodies or added cytokines. It is filed as cell-based. Particulars: naïve CD8 T cells from wild-type mice, anti-CD3/anti-CD28 stimulation, cultured 1 week in IL2, IL7, IL15, IL21; versus isotype antibodies. The text has this: Next, it was sought to determine whether the effects of blocking IFN-γ signaling on the Tcf7+ phenotype could be recapitulated using a method separate from CRISPR-deletion, such as with neutralizing antibodies. As such, antibodies to both the Ifn-gamma and Ifn-gamma receptor genes were used. Naïve CD8 T cells were isolated from wild-type mice and cultured in the presence of either isotype-control or a combination of Ifn-gamma and IfngR neutralizing antibodies at various dosing levels or in the presence of added cytokines (either IFN-gamma, IFN-alpha, or IL12), then stimulated with anti-CD3/anti-CD28 antibodies and cultured for 1 week in IL2, IL7, IL15, and IL21, and Tcf7 protein levels were quantified by intracellular flow cytometry, as shown in FIG. 11.

On to interferon-γ: added cytokine, for which the “Tcf7 expression (Tcf7 protein levels)” value is “no effect on Tcf7 expression”.
